Earlier results in patent US6548645B1, “Immunoassay for 2-oxo-3-hydroxy LSD” (Microgenetics Corporation, priority 1999, dated 2003).

How the values were obtained:
[1] = test system: antibodies generated by LSD immunogens (LSD analogs derivatized through N-1 or N-6 conjugated to a carrier); conditions: molar ratio; relative to LSD; antibodies of Salamone et al., Bioconjugate Chem 8:896-905 (1997)
[2] = doses as low as
[3] = man; calculated

Compound	cross-reactivity [1]	oral dose causing central nervous system disturbances (hallucinations, distortions in sensory perception, mood changes) [2] [µg]	plasma half-life [3]
CCN(CC)C(=O)C1C=C2c3cccc4c3C(O)(CC2N(C)C1)C(=O)N4 (stereo not drawn) [2PATENT -oxo-3-hydroxy-LSD, 2-oxo-3-hydroxy-LSD]	30-45%		
CCN(CC)C(=O)[C@@H]1C=C2c3cccc4[nH]cc(c34)C[C@H]2N(C)C1 [LSD]		≥ 25	about 3 hours
